1 compound from patent publication US20060128792A1, “Deguelin as a chemopreventive agent for lung cancer” (priority 2002, published 2006) can be followed below.

The structures appear in SMILES notation.

One experiment deals with H1299 xenografts. The experiment can be described thus: NSCLC xenograft tumor growth. The experiment is classed as in vivo, athymic nude mice. The conditions noted are these: 4 mg/kg or 8 mg/kg, 5 consecutive days; measured for 15 days; vs control. As for the experimental part:
The antitumor effect of deguelin was tested using an iii vivo model. H1299 cells were injected into the dorsal flank of athymic nude mice. Once tumor volume reached 40-80 mm^3, treatment for 5 consecutive days with 4 or 8 mg/kg deguelin began. Tumors were measured every other day for 15 days. […] The results are expressed as the mean (±SD) tumor volume (calculated from at least 5 mice) relative to the initial volume.

Experiment [1] has as its system bax and bcl-2 in lung cancer cell lines. The experiment is described as follows: Western blot of bax and bcl-2. The conditions noted are these: 10^−7 M deguelin. The experiment is classed as cell-based. As for the experimental part:
Immunoblotting. Whole cell lysates were prepared in lysis buffer (50 mM N-[2-[…]]-piperazine-N′-[2-ethanesulfonic acid] [HEPES; pH 7.5], 150 mM NaCl, 1.5 mM MgCl2, ImM EDTA, 0.2 mM EGTA, 1% NP40, 10% glycerol, 1 mM dithiothreitol (DTT), 1 mM phenylmethylsulfonyl fluoride, 20 mM sodium fluoride, 5 mM sodium orthovanadate, 10 μg/ml aprotinin, 10 μg/ml leupeptin, 2 μg/ml pepstatin, and 1 mM benzamidine) as described previously (Lee et al., 2002). Equivalent protein concentrations were resolved in sodium dodecyl sulfate-polyacrylamide gels and transferred to a nitrocellulose membrane. After the blocking of transblotted membrane in Tris-buffered saline (TBS) containing 0.05% Tween 20 (TBST) and 5% low fat milk, themembrane was incubated with primary antibody at the appropriate dilution in TBS-5% low-fat milk at 4° C. for 16 h and washed with TBST. The immunoblots were visualized using the ECL kit (Amersham, Inc., Arlington Heights, III) according to the manufacturer's directions. […]
The apoptotic effect of deguelin was further assessed in HBE cells. […] Apoptosis was analyzed by flow cytometry as described above. […] To confirm the apoptotic activity in these cells, bax and bcl-2 expression were analyzed by western blotting. […] Thus, it was determined that deguelin increases bax expression thereby inducing the apoptotic activity in lung cancer cells.

In another experiment the test system is PI3K. The experiment is described as follows: PI3K assay (lipid kinase assay on immunoprecipitate of treated cells). The conditions noted are these: 1799 cells, 10^−7 M deguelin, 1 day. The experiment is classed as cell-based. As for the experimental part: PI3K Assay. 1799 cells cultured in KSFM containing 10^−7 M deguelin for different time periods were lysed in lysis buffer. PI3K was immunoprecipitated from 500 μg of cellular protein using pan-anti-p85 antibody (Upstate Biotechnology, Waltham, Mass.), which coprecipitates the p110 catalytic subunit of PI3K, and subsequent lipid kinase assay was performed as described previously (Sibilia et al., 2000). Briefly, the mixture was incubated with gentle rocking at 4° C. for 12 h, 10 mg of protein A-sepharose (Amersham Pharmacia Biotech) were added, and the incubation was continued for another 2 h. The immunoprecipitates were washed, in tandem, three times with lysis buffer, twice with 0.1 M Tris/HCl, pH 7.5, containing 0.5 M LiCl, and 10 μM sodium vanadate, and twice with 10 mM Tris/HCl, pH 7.5, containing 100 MM NaCl, 10 μM sodium vanadate, and 1 mM EDTA. Adequate amounts of the washed antibody conjugates, in 10 μl, were added to 80 μl of 30 mM Hepes, pH 7.5, containing 125 μM ATP, 10 μCi of [α-^32P] ATP, and 6.25 mM MgCl2, and the reaction was initiated by adding 20 μg of bovine brain extract (Type 1; Sigma) suspended in 10 μl of 30 mM Hepes, pH 7.5. […] The autoradiograms were scanned by a Photodyne image system and quantified using the NIH Image program (version 1.59).

The next experiment deals with 1799 cells. The experiment can be described thus: Apoptosis assay (TUNEL, APO-BRDU kit, flow cytometry; DNA fragmentation). Type of experiment: cell-based. The conditions noted are these: for apoptosis in 1799 cells (TUNEL, flow cytometry): 3 days. How it is done: Apoptosis assay. Normal, premalignant, and malignant HBE cells were exposed to v various doses of deguelin for 3 days. […] Both adherent and floating cells were combined for the assessment of apoptosis using the APO-BRDU staining kit (Phoenix Flow Systems, San Diego, Calif.). Briefly, floating and attached cells dispersed with trypsin-EDTA were pelleted, washed, and fixed by 1% paraformaldehyde followed by 70% ethanol. The fixed cells were washed and incubated with DNA-labeling solution containing terminal deoxynucleotidyl transferase (TdT) reaction buffer, TdT enzyme, and bromodeoxyuridine triphosphate (Br-dUTP). Cells were rinsed, resuspended with fluorescein-PRB-I antibody solution, and analyzed by flow cytometry in the presence of PI/RNase solution. All analyses were performed based on 3000 to 10,000 events using a FACScan flow cytometer (Becton Dickinson, San Jose, Calif.) equipped with a 488-nm argon ion laser and CellQuest software. A dual display of DNA area (linear red fluorescence) and Br-dUTP incorporation (FITC-PRB-1) was used to determine the percentage of apoptotic cells.
The percentage of dead cells was determined by fluorescent-activated cell sorting (FACS) analysis of PI-stained nuclei. Apoptosis was also determined by the detection of nucleosomal DNA fragmentation, which was measured using the TACS apoptotic DNA Jaddering kit (Trevigen, Inc., Gaithersburg, Md.) according to the manufacturer's protocol. […] Apoptosis was analyzed using the APO-BRDU staining kit (Phoenix Flow Systems) as described above.

The next experiment relates to H1299 NSCLC cells. The experiment can be described thus: Sensitization to chemotherapeutic agents and irradiation, MTT analysis. The conditions noted are these: deguelin 100 nM 2 days; 10 nM paclitaxel, 50 nM doxorubicin or 4Gy irradiation for 1 day. Type of experiment: cell-based. How it is done:
FIG. 10. […] Results are expressed relative to the density of untreated cells. Bars, means±SD of a representative experiment done in six identical wells from five independently performed experiments.
Additional studies were conducted to determine whether deguelin can sensitize cells resistant to a chemotherapeutic agent. H1299 NSCLC cells were incubated with deguelin (100 nM) for 2 days.

With `COc1cc2c(cc1OC)[C@@H]1C(=O)c3ccc4c(c3O[C@@H]1CO2)C=CC(C)(C)O4` [Deguelin], in the experiment with H1299 xenografts, the “growth of NSCLC xenografts (tumor volume relative to initial volume)” value is on record as “inhibited”. In experiment [1], the Bcl-2 expression result is on record as “not found to be regulated” and the bax expression result was “Increased”. Moreover, the “PI3K activity (lipid kinase assay)” value with PI3K is listed as “decreased”. Also, in the experiment on 1799 cells (10^−7 M deguelin, 2 days), the “induction of apoptosis, Ad5CMV-Myr.Akt.HA-infected 1799 cells” value is given as “less than 10%” and the “induction of apoptosis, uninfected or empty virus-infected 1799 cells” value is on record as “About 40%”. Besides, the “apoptosis in 1799 cells (TUNEL, flow cytometry)” value in the experiment with 1799 cells (10^−7 M deguelin) was “more than 90%”. The “apoptosis in 1799 cells (TUNEL, flow cytometry)” value in the experiment with 1799 cells (10^−8 M deguelin) is recorded as 68.5%. For the same compound, the “DNA fragmentation in 1799 cells” value in the experiment with 1799 cells (three days of treatment, dose-dependent) is listed as “induced the generation of nucleosomal-sized ladders of DNA fragments”. In the experiment with H1299 NSCLC cells, the “sensitization to chemotherapeutic agents” value is reported as “sensitizes cancer cells to chemotherapeutic agents”.
